The values that follow come from ChEMBL document CHEMBL4219269, “Synthesis and anti-staphylococcal activity of novel bacterial topoisomerase inhibitors with a 5-amino-1,3-dioxane linker moiety” (Bioorg Med Chem Lett, 2018).

In brackets after ≈: the same amount, converted by molar mass. Where only a bound is given, the exact number is not on record here.

For one series, the species on record is Homo sapiens. Kind of series: Inhibition of human topoisomerase-2 mediated kinetoplast DNA decatenation assessed as remaining activity at 100 uM relative to control.
The next series relates to K562. Nature of the series: Antiproliferative activity against human K562 cells. Format: cell-based.
Series [1] can be described thus: Inhibition of human topoisomerase-2 in etoposide-resistant K/VP.5 cells assessed as growth inhibition.
Series [2] has as its system Staphylococcus aureus. Kind of series: Antibacterial activity against methicillin-sensitive Staphylococcus aureus ATCC 29213 by CLSI method. Format: functional.
The target of series [3] is T1, Voltage-gated inwardly rectifying potassium channel KCNH2 (Homo sapiens, UniProt Q12809). Kind of series: Inhibition of human ERG expressed in CHOK1 cells by patch clamp assay. Format: cell-based. (In general: Patch clamp records ionic current or voltage across a cell membrane.)
Series [4] concerns Staphylococcus aureus. Kind of series: Antibacterial activity against methicillin-resistant Staphylococcus aureus USA300 by CLSI method. Format: functional.
The nature of series [5]: Inhibition of Staphylococcus aureus topoisomerase-4-mediated kinetoplast DNA decatenation after 30 mins by agarose gel electrophoresis.
A short description of series [6]: Selectivity ratio of IC50 for human K562 cells to MIC for methicillin-sensitive Staphylococcus aureus ATCC 29213. Format: toxicity.
Another series has as its target DNA gyrase (Staphylococcus aureus, UniProt P0A0K8+P20831). Kind of series: Inhibition of Staphylococcus aureus DNA gyrase supercoiling activity using pBR322 as substrate after 30 mins by agarose gel electrophoresis. Format: protein-complex assay.
For series [7], the target named is T1, Voltage-gated inwardly rectifying potassium channel KCNH2. Nature of the series: Inhibition of human ERG expressed in CHO cells using -80 mV holding potential measured after 3 mins. Format: cell-based.

T1 sequence (Q12809 whole entry): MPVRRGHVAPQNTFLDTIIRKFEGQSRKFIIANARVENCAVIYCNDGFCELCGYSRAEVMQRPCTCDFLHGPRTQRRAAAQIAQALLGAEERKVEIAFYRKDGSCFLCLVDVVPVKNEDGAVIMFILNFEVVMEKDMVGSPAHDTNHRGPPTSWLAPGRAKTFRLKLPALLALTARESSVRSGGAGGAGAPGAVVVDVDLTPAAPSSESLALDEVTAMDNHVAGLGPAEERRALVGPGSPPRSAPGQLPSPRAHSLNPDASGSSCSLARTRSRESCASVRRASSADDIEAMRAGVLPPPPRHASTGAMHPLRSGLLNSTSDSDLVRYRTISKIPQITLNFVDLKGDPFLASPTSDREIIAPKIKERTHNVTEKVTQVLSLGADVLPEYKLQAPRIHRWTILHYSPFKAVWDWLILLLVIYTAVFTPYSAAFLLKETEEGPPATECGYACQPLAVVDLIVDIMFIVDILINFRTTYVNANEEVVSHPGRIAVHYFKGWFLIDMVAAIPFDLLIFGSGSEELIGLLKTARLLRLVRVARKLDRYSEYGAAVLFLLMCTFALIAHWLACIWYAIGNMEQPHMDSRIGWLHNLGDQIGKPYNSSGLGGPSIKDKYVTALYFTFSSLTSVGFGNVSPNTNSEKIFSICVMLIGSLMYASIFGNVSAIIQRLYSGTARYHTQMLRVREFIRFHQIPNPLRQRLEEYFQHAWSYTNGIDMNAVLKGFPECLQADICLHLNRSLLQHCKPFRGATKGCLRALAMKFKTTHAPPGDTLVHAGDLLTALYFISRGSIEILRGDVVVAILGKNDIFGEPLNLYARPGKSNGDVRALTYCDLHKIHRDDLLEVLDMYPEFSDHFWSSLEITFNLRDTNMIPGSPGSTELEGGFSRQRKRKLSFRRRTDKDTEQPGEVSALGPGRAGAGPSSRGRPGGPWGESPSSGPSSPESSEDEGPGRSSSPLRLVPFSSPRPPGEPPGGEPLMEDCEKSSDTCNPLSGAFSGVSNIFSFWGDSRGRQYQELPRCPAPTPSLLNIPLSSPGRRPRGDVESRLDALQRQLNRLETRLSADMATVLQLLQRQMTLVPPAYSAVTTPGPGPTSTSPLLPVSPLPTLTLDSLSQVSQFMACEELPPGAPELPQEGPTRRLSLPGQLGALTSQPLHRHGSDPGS
Chain of DNA gyrase (P0A0K8 whole entry): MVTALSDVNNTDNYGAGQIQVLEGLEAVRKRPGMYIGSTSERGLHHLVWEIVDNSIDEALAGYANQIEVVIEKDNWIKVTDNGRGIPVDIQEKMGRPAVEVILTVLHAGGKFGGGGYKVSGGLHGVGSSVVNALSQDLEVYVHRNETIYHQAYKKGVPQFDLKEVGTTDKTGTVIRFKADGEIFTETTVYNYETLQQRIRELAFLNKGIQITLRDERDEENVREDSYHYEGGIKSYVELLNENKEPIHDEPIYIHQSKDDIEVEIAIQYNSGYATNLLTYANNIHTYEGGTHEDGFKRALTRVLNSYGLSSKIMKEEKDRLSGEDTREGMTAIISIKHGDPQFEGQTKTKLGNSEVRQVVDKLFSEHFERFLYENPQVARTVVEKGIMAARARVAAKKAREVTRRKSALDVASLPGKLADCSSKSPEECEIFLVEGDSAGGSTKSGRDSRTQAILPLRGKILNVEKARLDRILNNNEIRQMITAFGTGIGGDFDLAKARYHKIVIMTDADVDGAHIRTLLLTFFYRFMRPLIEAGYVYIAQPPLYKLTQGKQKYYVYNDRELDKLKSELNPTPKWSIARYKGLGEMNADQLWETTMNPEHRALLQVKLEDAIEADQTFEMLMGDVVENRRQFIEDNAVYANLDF
Chain of DNA gyrase (P20831 whole entry): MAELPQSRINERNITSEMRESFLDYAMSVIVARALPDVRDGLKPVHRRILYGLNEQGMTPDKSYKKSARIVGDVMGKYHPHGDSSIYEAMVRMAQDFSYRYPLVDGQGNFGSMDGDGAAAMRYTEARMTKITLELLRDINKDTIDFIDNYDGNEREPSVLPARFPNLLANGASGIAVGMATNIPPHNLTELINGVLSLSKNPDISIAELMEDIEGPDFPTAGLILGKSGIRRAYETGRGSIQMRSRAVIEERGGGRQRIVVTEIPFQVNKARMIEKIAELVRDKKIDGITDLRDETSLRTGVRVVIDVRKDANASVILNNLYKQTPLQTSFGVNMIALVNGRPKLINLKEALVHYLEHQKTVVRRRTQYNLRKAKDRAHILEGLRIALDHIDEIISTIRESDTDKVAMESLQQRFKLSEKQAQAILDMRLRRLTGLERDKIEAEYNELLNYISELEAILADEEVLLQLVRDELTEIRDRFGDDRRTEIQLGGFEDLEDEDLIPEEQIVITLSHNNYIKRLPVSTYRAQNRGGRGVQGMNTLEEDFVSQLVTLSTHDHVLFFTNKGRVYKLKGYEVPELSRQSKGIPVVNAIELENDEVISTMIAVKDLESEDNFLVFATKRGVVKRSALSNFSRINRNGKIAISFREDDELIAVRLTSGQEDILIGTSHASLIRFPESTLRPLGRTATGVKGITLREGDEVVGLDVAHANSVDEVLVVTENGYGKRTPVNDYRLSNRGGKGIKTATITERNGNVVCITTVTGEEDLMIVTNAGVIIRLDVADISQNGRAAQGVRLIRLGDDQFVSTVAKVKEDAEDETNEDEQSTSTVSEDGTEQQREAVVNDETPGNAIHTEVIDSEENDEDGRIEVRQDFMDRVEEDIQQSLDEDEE

For orientation: IC50 means the concentration at which inhibition is half-maximal. Regarding `COc1cc([C@@H]2c3cc4c(cc3[C@@H](O[C@@H]3O[C@@H]5CO[C@@H](C)O[C@H]5[C@H](O)[C@H]3O)[C@H]3COC(=O)[C@H]23)OCO4)cc(OC)c1O` [ETOPOSIDE], the Activity in the series filed under Homo sapiens turned out to be 33.6%. The 50% inhibitory concentration (IC50) with K562 was 0.3 µM; in series [1], 5.1 µM.
As a reminder, the MIC is the least concentration at which growth counts as inhibited. A high value points to a need for much substance. In the series with Staphylococcus aureus [2], `COc1ccc2nccc(CC[C@H]3OC[C@H](NCc4ccccc4Cl)CO3)c2c1` gave an MIC of over 64 µg/mL.
`COc1ccc2nccc(CCN3CCC(NCc4ccc(Cl)c(Cl)c4)CC3)c2c1` showed a concentration for half-maximal inhibition (IC50) in series [3] of 1000 nM.
As for `COc1ccc2nccc(CC[C@H]3OC[C@H](NCc4ccc5c(c4)NC(=O)CO5)CO3)c2c1`, the figures for the MIC against Staphylococcus aureus [4] and with Staphylococcus aureus [2] were 1 µg/mL (≈ 2.22 µM) and 1 to 2 µg/mL (≈ 2.22 to 4.45 µM), respectively. Besides, in series [5], the IC50 was over 100 µM.
In the series with Staphylococcus aureus [2], `COc1ccc2nccc(CC[C@H]3OC[C@H](NCc4cccc(Cl)c4)CO3)c2c1` had an MIC of 32 µg/mL (≈ 77.5 µM).
Turning to `COc1ccc2nccc(CC[C@H]3OC[C@H](NCc4cc5c(cn4)OCCO5)CO3)c2c1`, the IC50 in [3] amounted to 9500 nM; with K562, 40 µM; in series [1], 48 µM; in series [5], 50 µM. Also, the Activity in the series listed under Homo sapiens stood at 95.1%. Also, the MIC was 2 µg/mL (≈ 4.57 µM) in the series on Staphylococcus aureus [4] and 1 to 2 µg/mL (≈ 2.29 to 4.57 µM) against Staphylococcus aureus [2].
`CN[C@H](CC(C)C)C(=O)N[C@H]1C(=O)N[C@@H](CC(N)=O)C(=O)N[C@H]2C(=O)N[C@H]3C(=O)N[C@H](C(=O)N[C@H](C(=O)O)c4cc(O)cc(O)c4-c4cc3ccc4O)[C@H](O)c3ccc(c(Cl)c3)Oc3cc2cc(c3O[C@@H]2O[C@H](CO)[C@@H](O)[C@H](O)[C@H]2O[C@H]2C[C@](C)(N)[C@H](O)[C@H](C)O2)Oc2ccc(cc2Cl)[C@H]1O` [VANCOMYCIN] displayed an MIC with Staphylococcus aureus [4] of 1 to 2 µg/mL (≈ 0.69 to 1.38 µM).
Take `COc1ccc2nccc(CC[C@H]3OC[C@H](NCc4ccc5c(n4)NC(=O)CS5)CO3)c2c1`: the concentration for half-maximal inhibition (IC50) was 1300 nM in [3], 31 µM with K562, 34 µM in series [1] and over 100 µM in series [5]. Further, in the series listed under Homo sapiens, the Activity came to 91.1%. The MIC with Staphylococcus aureus [4] and in the series on Staphylococcus aureus [2] was 0.5 µg/mL (≈ 1.07 µM) throughout.
In the case of `COc1ccc2nccc(CCN3CCC(NCc4ccc5c(c4)OCCO5)CC3)c2c1`, the half-inhibitory concentration (IC50) in series [3] was found to be 810 nM; in the series with K562 it was 10 µM; in [1] it was 12 µM.
Take `COc1ccc2nccc(CC[C@H]3OC[C@H](NCc4ccc5c(c4)OCCO5)CO3)c2c1`: the IC50 in [3] came to 5100 nM; with K562 it was 7.4 µM; in series [1] it was 8.8 µM; in series [5], 14 µM. Moreover, in the series listed under Homo sapiens, the Activity was determined as 84.2%. In addition, the minimum inhibitory concentration (MIC) in the series with Staphylococcus aureus [4] was 0.5 µg/mL (≈ 1.15 µM); against Staphylococcus aureus [2] it was 0.25 to 1 µg/mL (≈ 0.573 to 2.29 µM). Further, the selectivity ratio in series [6] was 3.5.
Consider `COc1ccc2nccc(CC[C@H]3CC[C@H](NCc4cc5c(cn4)OCCO5)CC3)c2c1`, for which the IC50 is 940 nM in series [3], 7.5 µM in the series with K562 and 5.7 µM in series [1].
As for `COc1ccc2nccc(CC[C@H]3OC[C@H](NCc4ccc5c(n4)NC(=O)CO5)CO3)c2c1`, the half-inhibitory concentration (IC50) is 2500 nM in [3], 24 µM with K562, 44 µM in series [1] and over 100 µM in [5]. Further, in the series listed under Homo sapiens, the Activity amounted to 99.1%. Besides, the MIC in the series on Staphylococcus aureus [4] is 1 µg/mL (≈ 2.22 µM); in the series with Staphylococcus aureus [2] it was 0.5 µg/mL (≈ 1.11 µM).
Regarding `COc1ccc2nccc(CC[C@H]3OC[C@H](NCc4cc5c(cn4)OCCC5)CO3)c2c1`, the half-inhibitory concentration (IC50) in [3] is 12000 nM; with K562, 32 µM; in series [1], 40 µM; in series [5], 25 to 50 µM. In addition, the Activity in the series filed under Homo sapiens is 93.8%. Moreover, the minimal inhibitory concentration (MIC) is 2 µg/mL (≈ 4.59 µM) against Staphylococcus aureus [4] and 1 µg/mL (≈ 2.3 µM) against Staphylococcus aureus [2].
`COc1ccc2nccc(CC[C@H]3OC[C@H](NCc4ccc(Cl)cn4)CO3)c2c1` registered an MIC with Staphylococcus aureus [2] of 8 µg/mL (≈ 19.3 µM).
`O=C(O)c1cn(C2CC2)c2cc(N3CCNCC3)c(F)cc2c1=O` [CIPROFLOXACIN]: in the series filed under Homo sapiens, the Activity came out at 85.5%. In series [5], this compound returned an IC50 of 14.3 µM.
Turning to `COc1ccc2nccc(CC[C@H]3OC[C@H](NCc4ccccn4)CO3)c2c1`, in the series on Staphylococcus aureus [2], the MIC turned out to be 8 µg/mL (≈ 21.1 µM).
As to `COc1ccc2nccc(CCN3CCC(NCc4cc5c(cn4)OCCO5)CC3)c2c1`, the IC50 in series [3] stood at 1900 nM; in the series on K562, 28 µM; in [1], 22 µM.
`COc1ccc2nccc(CC[C@H]3OC[C@H](NCc4ccc(Cl)cc4)CO3)c2c1`: the IC50 was 1200 nM on DNA gyrase; 2000 nM in series [3]; 12 µM in the series on K562; 16 µM in series [1]; over 100 µM in [5]. Moreover, the Activity in the series filed under Homo sapiens was 97.8%. The MIC against Staphylococcus aureus [4] is 4 µg/mL (≈ 9.69 µM); in the series with Staphylococcus aureus [2], 1 µg/mL (≈ 2.42 µM).
`COc1ccc2nccc(CCN3CCC(NCc4ccc5c(n4)NC(=O)CO5)CC3)c2c1`: the IC50 in [3] worked out at 3800 nM; in the series with K562, 19 µM; in [1], 16 µM.
In series [3], `COc1ccc2nccc(CC[C@H]3CC[C@H](NCc4ccc(Cl)c(Cl)c4)CC3)c2c1` displayed an IC50 of 2300 nM.
On to `COc1ccc2nccc(CC[C@H]3OC[C@H](NCc4ccccc4)CO3)c2c1`, for which the minimum inhibitory concentration (MIC) in the series with Staphylococcus aureus [2] is over 64 µg/mL.
For the compound `COc1ccc2nccc(CC[C@H]3CC[C@H](NCc4ccc5c(n4)NC(=O)CO5)CC3)c2c1`, the values for the IC50 (in series [3]; in the series with K562; in series [1]) were 410 nM, 12 µM and 11 µM, respectively.
For the compound `COc1ccc2nccc(CC[C@H]3OC[C@H](NCc4cccnc4)CO3)c2c1`, the MIC against Staphylococcus aureus [2] was over 64 µg/mL.
For `COc1ccc2nccc(CC[C@H]3CC[C@H](NCc4ccc5c(c4)OCCO5)CC3)c2c1`, the IC50 in series [3] was 260 nM; with K562, 4.2 µM; in series [1] it was 4.5 µM.
Consider `O=c1ccc2ncc(=O)n3c2n1C[C@H]3CN1CCC(NCc2cc3c(cn2)OCCC3)CC1` [GEPOTIDACIN], for which the midpoint of inhibition in [7], the IC50, lay at 1.31 mM.
With `COc1ccc2nccc(CC[C@H]3OC[C@H](NCc4ccc(Cl)c(Cl)c4)CO3)c2c1`, the 50% inhibitory concentration (IC50) was 4800 nM in series [3], 20 µM with K562, 15 µM in [1] and over 100 µM in [5]. For the same compound, the Activity in the series listed under Homo sapiens was determined as 93.2%. For the same compound, the MIC against Staphylococcus aureus [4] was 0.5 µg/mL (≈ 1.12 µM).
